Laboratory results reported in patent US11697648B2, “Fused pyrimidine pyridinone compounds as JAK inhibitors” (THERAVANCE BIOPHARMA R&D IP, LLC, priority 2019, dated 2023).

Key:
JAK1 = JAK1 (Homo sapiens (Human), UniProt P23458); assay: Biochemical JAK1 kinase assay (LanthaScreen)
Summary of the method: (§1)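 GST-JAK + GFP-STAT1 peptide, HEPES pH 7.5/MgCl2/EGTA/Brij-35 buffer; cpd preincubation 1 h RT; ATP start, 1 h RT; stop with 10 mM EDTA + 2 nM Tb-anti-pSTAT1; TR-FRET 520/495. 4-parameter IC50 → pKi (Cheng-Prusoff).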

JAK2 = JAK2 (Homo sapiens (Human), UniProt O60674); assay: Biochemical JAK2 kinase assay (LanthaScreen)
JAK2, sequence (O60674 whole entry): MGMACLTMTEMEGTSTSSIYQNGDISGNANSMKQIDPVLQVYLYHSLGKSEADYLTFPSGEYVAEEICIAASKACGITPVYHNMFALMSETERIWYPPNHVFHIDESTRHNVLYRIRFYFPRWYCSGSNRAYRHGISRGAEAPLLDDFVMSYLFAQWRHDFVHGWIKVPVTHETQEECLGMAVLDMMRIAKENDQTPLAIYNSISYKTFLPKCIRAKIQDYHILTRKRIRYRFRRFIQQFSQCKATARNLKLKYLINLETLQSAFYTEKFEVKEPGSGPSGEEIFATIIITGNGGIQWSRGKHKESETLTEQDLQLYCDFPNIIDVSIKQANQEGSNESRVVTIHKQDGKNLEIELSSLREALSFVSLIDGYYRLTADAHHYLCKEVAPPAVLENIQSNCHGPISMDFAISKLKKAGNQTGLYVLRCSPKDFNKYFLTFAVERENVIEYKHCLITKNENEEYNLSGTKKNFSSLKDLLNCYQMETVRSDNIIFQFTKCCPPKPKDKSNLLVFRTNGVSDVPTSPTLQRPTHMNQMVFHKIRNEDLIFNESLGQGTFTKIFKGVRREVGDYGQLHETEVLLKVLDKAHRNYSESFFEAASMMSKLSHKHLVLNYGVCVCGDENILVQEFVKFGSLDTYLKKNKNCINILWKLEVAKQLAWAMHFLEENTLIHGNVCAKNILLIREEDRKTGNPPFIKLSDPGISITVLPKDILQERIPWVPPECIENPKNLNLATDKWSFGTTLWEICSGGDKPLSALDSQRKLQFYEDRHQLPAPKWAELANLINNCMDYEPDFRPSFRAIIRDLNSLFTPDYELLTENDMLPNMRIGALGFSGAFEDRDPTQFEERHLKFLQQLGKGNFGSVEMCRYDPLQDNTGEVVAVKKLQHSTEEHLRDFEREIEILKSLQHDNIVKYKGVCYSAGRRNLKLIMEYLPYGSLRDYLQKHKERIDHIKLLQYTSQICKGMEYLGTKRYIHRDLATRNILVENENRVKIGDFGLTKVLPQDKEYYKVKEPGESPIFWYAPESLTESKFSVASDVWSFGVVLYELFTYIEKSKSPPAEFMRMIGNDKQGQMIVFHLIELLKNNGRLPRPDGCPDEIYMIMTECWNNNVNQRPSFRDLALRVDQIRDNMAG
Summary of the method: as §1

JAK3 = JAK3 (Homo sapiens (Human), UniProt P52333); assay: Biochemical JAK3 kinase assay (LanthaScreen); details: for JAK3 (pKi)-JAK1 (pKi): selectivity JAK3 over JAK1, difference of pKi
JAK3, sequence (P52333 whole entry): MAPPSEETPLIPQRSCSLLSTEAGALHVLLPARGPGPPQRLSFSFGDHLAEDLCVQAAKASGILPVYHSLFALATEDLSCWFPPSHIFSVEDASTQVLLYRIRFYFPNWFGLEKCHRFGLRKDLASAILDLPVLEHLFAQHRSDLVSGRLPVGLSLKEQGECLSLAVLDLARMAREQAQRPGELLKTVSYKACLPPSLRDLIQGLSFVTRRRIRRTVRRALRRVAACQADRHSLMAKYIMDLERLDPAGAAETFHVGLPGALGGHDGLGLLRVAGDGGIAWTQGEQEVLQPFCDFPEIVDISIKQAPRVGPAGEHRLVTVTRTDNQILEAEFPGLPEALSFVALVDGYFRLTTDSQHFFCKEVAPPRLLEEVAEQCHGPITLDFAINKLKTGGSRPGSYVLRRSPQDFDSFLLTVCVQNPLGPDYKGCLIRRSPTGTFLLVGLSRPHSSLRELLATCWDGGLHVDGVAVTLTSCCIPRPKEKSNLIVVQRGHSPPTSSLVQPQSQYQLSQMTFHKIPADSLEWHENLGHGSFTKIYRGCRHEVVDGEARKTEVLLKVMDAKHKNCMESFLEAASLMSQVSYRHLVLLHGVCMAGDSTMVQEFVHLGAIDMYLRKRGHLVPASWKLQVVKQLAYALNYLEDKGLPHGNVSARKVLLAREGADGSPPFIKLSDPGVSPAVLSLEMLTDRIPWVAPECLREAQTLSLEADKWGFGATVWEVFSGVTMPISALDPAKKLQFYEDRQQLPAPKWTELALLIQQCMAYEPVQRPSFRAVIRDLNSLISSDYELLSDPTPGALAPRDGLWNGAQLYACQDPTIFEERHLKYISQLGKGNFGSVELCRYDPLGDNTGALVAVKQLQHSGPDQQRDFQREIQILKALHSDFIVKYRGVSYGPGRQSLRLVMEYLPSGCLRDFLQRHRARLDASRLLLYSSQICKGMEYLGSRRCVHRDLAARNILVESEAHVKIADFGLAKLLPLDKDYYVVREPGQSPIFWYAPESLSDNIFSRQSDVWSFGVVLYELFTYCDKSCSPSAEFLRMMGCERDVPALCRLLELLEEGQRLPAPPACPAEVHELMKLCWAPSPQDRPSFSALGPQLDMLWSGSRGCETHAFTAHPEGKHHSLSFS
Summary of the method: as §1

Caco-2 cell monolayers = assay: Caco-2 permeation assay; type: in vitro ADME; details: 5 μM, A-B direction, with Verapamil (25 μM)
Summary of the method: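 Compounds tested at 5 μM in duplicate across Caco-2 monolayers, apical-to-basolateral, with 25 μM verapamil to block P-gp, at 37° C., 5% CO2. Apical and basal samples taken at 0 and 120 min, analysed by LC-MS/MS; Papp (cm/sec) calculated as dQ/(dt×Area×concentration).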

[1] = test system: IL-2 stimulated STAT5 phosphorylation in Tall-1 human T cell line (JAK3); assay: Cellular JAK3 potency assay: inhibition of IL-2 stimulated pSTAT5 in Tall-1 T cells; type: cell-based; details: IL-2 stimulated pSTAT5, Tall-1 T cells
Summary of the method: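 Tall-1 cells, 45,000 per well, preincubated 1 hour with compound at 37 °C, then stimulated 30 minutes with IL-2 at 300 ng/ml final. pSTAT5 (Tyr694/699) in lysates quantified by AlphaLISA SureFire Ultra. pIC50 derived from inhibition curves, given as mean with SD.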

Tyk2 = Tyk2 (Homo sapiens (Human), UniProt P29597); assay: Biochemical Tyk2 kinase assay (LanthaScreen)
Tyk2, sequence (P29597 whole entry): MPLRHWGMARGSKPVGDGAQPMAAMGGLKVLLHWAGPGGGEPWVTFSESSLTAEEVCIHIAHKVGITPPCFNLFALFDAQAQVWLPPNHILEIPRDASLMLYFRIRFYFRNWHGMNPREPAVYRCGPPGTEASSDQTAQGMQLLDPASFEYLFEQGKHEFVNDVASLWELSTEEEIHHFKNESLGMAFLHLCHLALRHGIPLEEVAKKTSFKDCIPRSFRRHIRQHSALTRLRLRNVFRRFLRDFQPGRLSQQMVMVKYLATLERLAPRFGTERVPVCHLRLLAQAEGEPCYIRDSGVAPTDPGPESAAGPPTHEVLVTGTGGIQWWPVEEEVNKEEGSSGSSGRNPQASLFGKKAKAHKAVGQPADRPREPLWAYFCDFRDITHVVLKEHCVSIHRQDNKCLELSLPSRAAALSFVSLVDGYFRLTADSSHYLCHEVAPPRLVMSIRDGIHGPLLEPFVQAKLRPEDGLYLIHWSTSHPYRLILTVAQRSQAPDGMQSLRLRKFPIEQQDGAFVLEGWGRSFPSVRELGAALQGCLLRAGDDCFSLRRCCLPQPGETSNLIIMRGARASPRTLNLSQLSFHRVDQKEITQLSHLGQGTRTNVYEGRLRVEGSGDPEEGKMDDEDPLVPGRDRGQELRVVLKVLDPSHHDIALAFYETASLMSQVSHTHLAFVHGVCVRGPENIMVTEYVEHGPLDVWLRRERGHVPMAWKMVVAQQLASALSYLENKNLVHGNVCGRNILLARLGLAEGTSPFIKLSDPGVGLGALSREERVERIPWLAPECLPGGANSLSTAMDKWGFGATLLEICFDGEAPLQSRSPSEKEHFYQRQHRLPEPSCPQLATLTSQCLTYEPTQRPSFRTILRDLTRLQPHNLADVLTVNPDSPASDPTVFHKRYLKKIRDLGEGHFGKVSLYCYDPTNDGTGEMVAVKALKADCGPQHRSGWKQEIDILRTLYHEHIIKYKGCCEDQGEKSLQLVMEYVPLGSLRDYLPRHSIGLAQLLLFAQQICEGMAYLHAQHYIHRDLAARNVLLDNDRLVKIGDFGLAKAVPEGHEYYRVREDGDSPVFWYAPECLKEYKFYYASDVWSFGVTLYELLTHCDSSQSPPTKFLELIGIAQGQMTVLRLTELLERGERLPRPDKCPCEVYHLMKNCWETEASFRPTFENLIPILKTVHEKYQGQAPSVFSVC
Summary of the method: as §1

JAK1, sequence (P23458 whole entry): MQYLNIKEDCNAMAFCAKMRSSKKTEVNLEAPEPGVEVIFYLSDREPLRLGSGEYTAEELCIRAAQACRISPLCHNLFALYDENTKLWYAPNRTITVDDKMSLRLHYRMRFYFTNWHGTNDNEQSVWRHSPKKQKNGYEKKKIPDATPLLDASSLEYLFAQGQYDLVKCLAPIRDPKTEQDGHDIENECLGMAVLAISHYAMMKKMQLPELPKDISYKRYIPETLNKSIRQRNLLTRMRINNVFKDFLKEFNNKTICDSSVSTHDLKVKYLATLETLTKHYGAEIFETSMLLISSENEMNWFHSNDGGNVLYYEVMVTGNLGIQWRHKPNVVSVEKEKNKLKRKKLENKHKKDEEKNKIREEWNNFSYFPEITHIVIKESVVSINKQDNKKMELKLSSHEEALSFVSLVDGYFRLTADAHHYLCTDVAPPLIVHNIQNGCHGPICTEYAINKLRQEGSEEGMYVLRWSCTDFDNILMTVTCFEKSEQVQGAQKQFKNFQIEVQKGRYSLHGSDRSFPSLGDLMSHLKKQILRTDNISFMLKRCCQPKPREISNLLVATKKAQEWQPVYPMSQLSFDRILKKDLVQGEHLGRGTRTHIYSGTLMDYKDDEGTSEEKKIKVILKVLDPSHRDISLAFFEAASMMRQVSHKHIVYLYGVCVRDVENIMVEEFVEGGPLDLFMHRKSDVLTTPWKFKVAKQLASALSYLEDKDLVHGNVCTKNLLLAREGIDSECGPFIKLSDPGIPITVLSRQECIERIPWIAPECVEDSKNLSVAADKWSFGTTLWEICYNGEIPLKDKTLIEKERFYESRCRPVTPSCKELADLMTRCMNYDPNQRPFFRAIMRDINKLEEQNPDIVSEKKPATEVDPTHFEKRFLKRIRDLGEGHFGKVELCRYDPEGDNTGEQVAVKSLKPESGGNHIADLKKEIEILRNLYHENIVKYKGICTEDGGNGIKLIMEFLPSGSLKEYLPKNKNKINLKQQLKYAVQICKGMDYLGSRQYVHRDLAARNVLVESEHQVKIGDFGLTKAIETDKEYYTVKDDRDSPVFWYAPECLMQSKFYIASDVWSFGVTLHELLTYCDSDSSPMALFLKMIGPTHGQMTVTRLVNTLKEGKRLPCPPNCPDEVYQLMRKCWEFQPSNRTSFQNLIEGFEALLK

## C=CC(=O)N1CC(CCn2c(=O)ccc3cnc(Nc4ccc(N5CCN(C)[C@H](C)C5)cc4)nc32)C1 [Example 162]
JAK1
  JAK 1 (pKi): E (E represents a pKi value of 7 or below (Ki of 100 nM or above))
JAK2
  JAK 2 (pKi): E (E represents a pKi value of 7 or below (Ki of 100 nM or above))
JAK3
  JAK 3 (pKi): A (A represents a pKi value≥10 (Ki≤0.1 nM))
  JAK3 (pKi)-JAK1 (pKi): A (A represents a value of 3 or above)
Caco-2 cell monolayers
  Caco Kp: C (C represents a value between 10×10^−6 and 30×10^−6 cm/sec)
[1]
  Tall-1 (pIC50): A (A represents a pIC50 value≥7.5 (IC50≤32 nM))
Tyk2
  Tyk 2 (pKi): E (E represents a pKi value of 7 or below (Ki of 100 nM or above))

## C=CC(=O)N1CC(CCn2c(=O)ccc3cnc(Nc4ccc(N5CCN(C(C)=O)[C@@H](C)C5)cc4)nc32)C1 [Example 167]
JAK1
  JAK 1 (pKi): E (E represents a pKi value of 7 or below (Ki of 100 nM or above))
JAK2
  JAK 2 (pKi): E (E represents a pKi value of 7 or below (Ki of 100 nM or above))
JAK3
  JAK 3 (pKi): A (A represents a pKi value≥10 (Ki≤0.1 nM))
  JAK3 (pKi)-JAK1 (pKi): A (A represents a value of 3 or above)
Caco-2 cell monolayers
  Caco Kp: A (A represents a value below 5×10^−6 cm/sec)
[1]
  Tall-1 (pIC50): B (B represents a pC50 value between 6.7 (included) and 7.5 (IC50 between 200 nM and 32 nM))
Tyk2
  Tyk 2 (pKi): E (E represents a pKi value of 7 or below (Ki of 100 nM or above))

## C=CC(=O)N1CCN(CCn2c(=O)ccc3cnc(Nc4ccc(N5CCN(S(=O)(=O)CCOC)CC5)cc4)nc32)[C@@H](C)C1 [Example 170]
JAK1
  JAK 1 (pKi): E (E represents a pKi value of 7 or below (Ki of 100 nM or above))
JAK2
  JAK 2 (pKi): E (E represents a pKi value of 7 or below (Ki of 100 nM or above))
JAK3
  JAK 3 (pKi): A (A represents a pKi value≥10 (Ki≤0.1 nM))
  JAK3 (pKi)-JAK1 (pKi): A (A represents a value of 3 or above)
Caco-2 cell monolayers
  Caco Kp: B (B represents a value between 5×10^−6 and 10×10^−6 cm/sec)
[1]
  Tall-1 (pIC50): A (A represents a pIC50 value≥7.5 (IC50≤32 nM))
Tyk2
  Tyk 2 (pKi): E (E represents a pKi value of 7 or below (Ki of 100 nM or above))

## C=CC(=O)N1CCN(CCn2c(=O)ccc3cnc(Nc4ccc(N5CCN(C(=O)OC)CC5)cc4)nc32)[C@@H](C)C1 [Example 172]
JAK1
  JAK 1 (pKi): E (E represents a pKi value of 7 or below (Ki of 100 nM or above))
JAK2
  JAK 2 (pKi): E (E represents a pKi value of 7 or below (Ki of 100 nM or above))
JAK3
  JAK 3 (pKi): B (B represents pKi value between 9 and 10 (Ki between 1 nM and 0.1 nM))
  JAK3 (pKi)-JAK1 (pKi): A (A represents a value of 3 or above)
Caco-2 cell monolayers
  Caco Kp: C (C represents a value between 10×10^−6 and 30×10^−6 cm/sec)
[1]
  Tall-1 (pIC50): A (A represents a pIC50 value≥7.5 (IC50≤32 nM))
Tyk2
  Tyk 2 (pKi): E (E represents a pKi value of 7 or below (Ki of 100 nM or above))

## C=CC(=O)N1CC(CCn2c(=O)ccc3cnc(Nc4ccc(N5C[C@@H](C)N(C(C)=O)[C@@H](C)C5)cc4)nc32)C1 [Example 178]
JAK1
  JAK 1 (pKi): E (E represents a pKi value of 7 or below (Ki of 100 nM or above))
JAK2
  JAK 2 (pKi): E (E represents a pKi value of 7 or below (Ki of 100 nM or above))
JAK3
  JAK 3 (pKi): A (A represents a pKi value≥10 (Ki≤0.1 nM))
  JAK3 (pKi)-JAK1 (pKi): A (A represents a value of 3 or above)
Caco-2 cell monolayers
  Caco Kp: C (C represents a value between 10×10^−6 and 30×10^−6 cm/sec)
[1]
  Tall-1 (pIC50): B (B represents a pC50 value between 6.7 (included) and 7.5 (IC50 between 200 nM and 32 nM))
Tyk2
  Tyk 2 (pKi): E (E represents a pKi value of 7 or below (Ki of 100 nM or above))

## C=CC(=O)N1CC(CCn2c(=O)ccc3cnc(Nc4ccc(N5CCN(C(C)=O)C(C)(C)C5)cc4)nc32)C1 [Example 179]
JAK1
  JAK 1 (pKi): E (E represents a pKi value of 7 or below (Ki of 100 nM or above))
JAK2
  JAK 2 (pKi): E (E represents a pKi value of 7 or below (Ki of 100 nM or above))
JAK3
  JAK 3 (pKi): A (A represents a pKi value≥10 (Ki≤0.1 nM))
  JAK3 (pKi)-JAK1 (pKi): A (A represents a value of 3 or above)
Caco-2 cell monolayers
  Caco Kp: C (C represents a value between 10×10^−6 and 30×10^−6 cm/sec)
[1]
  Tall-1 (pIC50): B (B represents a pC50 value between 6.7 (included) and 7.5 (IC50 between 200 nM and 32 nM))
Tyk2
  Tyk 2 (pKi): E (E represents a pKi value of 7 or below (Ki of 100 nM or above))

## C=CC(=O)N1CC(CC)(CCn2c(=O)ccc3cnc(Nc4ccc(N5CCN(C(C)=O)CC5)cc4)nc32)C1 [Example 180]
JAK1
  JAK 1 (pKi): E (E represents a pKi value of 7 or below (Ki of 100 nM or above))
JAK2
  JAK 2 (pKi): E (E represents a pKi value of 7 or below (Ki of 100 nM or above))
JAK3
  JAK 3 (pKi): B (B represents pKi value between 9 and 10 (Ki between 1 nM and 0.1 nM))
  JAK3 (pKi)-JAK1 (pKi): A (A represents a value of 3 or above)
Caco-2 cell monolayers
  Caco Kp: A (A represents a value below 5×10^−6 cm/sec)
[1]
  Tall-1 (pIC50): B (B represents a pC50 value between 6.7 (included) and 7.5 (IC50 between 200 nM and 32 nM))
Tyk2
  Tyk 2 (pKi): E (E represents a pKi value of 7 or below (Ki of 100 nM or above))

## C=CC(=O)N1CCN(CCn2c(=O)ccc3cnc(Nc4ccc(N5CCN(C(C)=O)CC5)cc4)nc32)[C@@H](CC)C1 [Example 185]
JAK1
  JAK 1 (pKi): E (E represents a pKi value of 7 or below (Ki of 100 nM or above))
JAK2
  JAK 2 (pKi): E (E represents a pKi value of 7 or below (Ki of 100 nM or above))
JAK3
  JAK 3 (pKi): A (A represents a pKi value≥10 (Ki≤0.1 nM))
  JAK3 (pKi)-JAK1 (pKi): A (A represents a value of 3 or above)
Caco-2 cell monolayers
  Caco Kp: B (B represents a value between 5×10^−6 and 10×10^−6 cm/sec)
[1]
  Tall-1 (pIC50): B (B represents a pC50 value between 6.7 (included) and 7.5 (IC50 between 200 nM and 32 nM))
Tyk2
  Tyk 2 (pKi): E (E represents a pKi value of 7 or below (Ki of 100 nM or above))

## C=CC(=O)N1CCN(CCn2c(=O)ccc3cnc(Nc4ccc(N5CCN(C(=O)COC)CC5)cc4)nc32)[C@@H](CC)C1 [Example 186]
JAK1
  JAK 1 (pKi): E (E represents a pKi value of 7 or below (Ki of 100 nM or above))
JAK2
  JAK 2 (pKi): E (E represents a pKi value of 7 or below (Ki of 100 nM or above))
JAK3
  JAK 3 (pKi): B (B represents pKi value between 9 and 10 (Ki between 1 nM and 0.1 nM))
  JAK3 (pKi)-JAK1 (pKi): A (A represents a value of 3 or above)
Caco-2 cell monolayers
  Caco Kp: A (A represents a value below 5×10^−6 cm/sec)
[1]
  Tall-1 (pIC50): B (B represents a pC50 value between 6.7 (included) and 7.5 (IC50 between 200 nM and 32 nM))
Tyk2
  Tyk 2 (pKi): E (E represents a pKi value of 7 or below (Ki of 100 nM or above))

## C=CC(=O)N1CCN(CCn2c(=O)ccc3cnc(Nc4ccc(N5CCN(C(=O)N(C)C)CC5)cc4)nc32)[C@@H](CC)C1 [Example 187]
JAK1
  JAK 1 (pKi): E (E represents a pKi value of 7 or below (Ki of 100 nM or above))
JAK2
  JAK 2 (pKi): E (E represents a pKi value of 7 or below (Ki of 100 nM or above))
JAK3
  JAK 3 (pKi): B (B represents pKi value between 9 and 10 (Ki between 1 nM and 0.1 nM))
  JAK3 (pKi)-JAK1 (pKi): A (A represents a value of 3 or above)
Caco-2 cell monolayers
  Caco Kp: C (C represents a value between 10×10^−6 and 30×10^−6 cm/sec)
[1]
  Tall-1 (pIC50): B (B represents a pC50 value between 6.7 (included) and 7.5 (IC50 between 200 nM and 32 nM))
Tyk2
  Tyk 2 (pKi): E (E represents a pKi value of 7 or below (Ki of 100 nM or above))

## C=CC(=O)N1CCN(CCn2c(=O)ccc3cnc(Nc4ccc(N5CCN(C(=O)CSC)CC5)cc4)nc32)[C@@H](CC)C1 [Example 188]
JAK1
  JAK 1 (pKi): E (E represents a pKi value of 7 or below (Ki of 100 nM or above))
JAK2
  JAK 2 (pKi): E (E represents a pKi value of 7 or below (Ki of 100 nM or above))
JAK3
  JAK 3 (pKi): B (B represents pKi value between 9 and 10 (Ki between 1 nM and 0.1 nM))
  JAK3 (pKi)-JAK1 (pKi): A (A represents a value of 3 or above)
Caco-2 cell monolayers
  Caco Kp: C (C represents a value between 10×10^−6 and 30×10^−6 cm/sec)
[1]
  Tall-1 (pIC50): B (B represents a pC50 value between 6.7 (included) and 7.5 (IC50 between 200 nM and 32 nM))
Tyk2
  Tyk 2 (pKi): E (E represents a pKi value of 7 or below (Ki of 100 nM or above))
